Assays:
[1] = test system: human pancreatic cancer cell line MiaPaCa2 (ATCC CRL-1420); assay: Cell growth assay (CellTiterGlo, 72 hours); assay type: cell-based; settings: for IC50: MIA PaCa-2, MiaPaCa2 cells, 72 hours, read-out: IC50 MiaPaCa; for inhibition at 50 µM: MIA PaCa-2, at 50 μM, read-out: Inhibition of MiaPaCa growth at indicated concentration
Method in brief: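 MiaPaCa2 cells (10^3/well) seeded in supplemented DMEM overnight, then exposed in quadruplicate to compound at 100 down to 0.1 μM for 72 h at 37° C. Growth read by CellTiterGlo luminescence, medium-only background subtracted, normalised to untreated cells; IC50 = concentration reducing growth to 50%.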

MNK1 = biological target: T1, MNK1 (Homo sapiens, UniProt Q9BUB5); assay: MNK inhibition assay (Z-Lyte kinase assay, Ser/Thr 7 peptide); assay type: biochemical; settings: for IC50: recombinant GST-MNK1, 3 hours at 31° C.
T1 construct: purchased Life Technologies or Carna Biosciences PV6023 or 02-145; host or cells: baculovirus infected insect cells
T1 sequence (Q9BUB5 whole entry): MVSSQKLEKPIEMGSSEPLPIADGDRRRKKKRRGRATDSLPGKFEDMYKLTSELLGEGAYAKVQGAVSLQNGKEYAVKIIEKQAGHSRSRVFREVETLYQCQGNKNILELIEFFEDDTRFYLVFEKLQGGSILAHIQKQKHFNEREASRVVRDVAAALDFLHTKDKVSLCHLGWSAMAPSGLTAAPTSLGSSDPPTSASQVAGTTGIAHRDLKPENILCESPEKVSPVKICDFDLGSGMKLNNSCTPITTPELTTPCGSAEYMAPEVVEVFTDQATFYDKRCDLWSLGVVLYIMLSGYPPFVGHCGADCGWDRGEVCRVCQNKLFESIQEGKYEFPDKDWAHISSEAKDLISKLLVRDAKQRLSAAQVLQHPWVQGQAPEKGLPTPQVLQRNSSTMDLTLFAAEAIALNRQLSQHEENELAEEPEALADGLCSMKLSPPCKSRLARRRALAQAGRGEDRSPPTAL
Method in brief: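 Recombinant GST-MNK1 from baculovirus-infected insect cells, Z-Lyte Ser/Thr 7 peptide, enzyme set for ~30% phosphorylation in buffer-only wells; 3 hours at 31° C. Compounds at 50–10000 nM (potent ones down to 0.5 nM), at least duplicate. IC50 from % substrate phosphorylation versus buffer-only wells, fluorescence read-out.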

Row | Structure (SMILES) | IC50 [1] [nM] | IC50 (MNK1) [nM] | inhibition at 50 µM [1] [%] | inhibition at 10 µM (MNK1; at 10 μM, read-out: Inhibition of MNK1 activity at indicated concentration) [%]
1 | COc1cccc(-c2cncc3ccc(CN4CCC(N)CC4)cc23)c1 [Example 198] | 11100 | 882 |  | 
2 | NC1CCN(Cc2ccc3cncc(-c4ccc5c(c4)OCO5)c3c2)CC1 [Example 199] | 8670 | 212 |  | 
3 | NC1CCN(Cc2ccc3cncc(-c4ccc(Cl)c(Cl)c4)c3c2)CC1 [Example 200] | 16400 | 245 |  | 
4 | COc1ccc(-c2cncc3ccc(CN4CCC(N)CC4)cc23)cn1 [Example 201] | 25200 | 803 |  | 
5 | COc1ccc(-c2cncc3ccc(CN4CCC(N)CC4)cc23)cc1OC [Example 202] | 19400 | 1270 |  | 
6 | Cn1cc(-c2cncc3ccc(CN4CCC(N)CC4)cc23)cn1 [Example 203] |  | 624 | 48 | 
7 | NC1CCN(Cc2ccc3cncc(-c4cn[nH]c4)c3c2)CC1 [Example 204] |  | 4700 | 55 | 
8 | N[C@@H]1CCN(Cc2ccc3cncc(-c4cc5ccccc5o4)c3c2)C[C@H]1F [Example 205] | 4520 | 2150 |  | 
9 | N[C@@H]1CCN(Cc2ccc3cncc(-c4cc5ccccc5o4)c3c2)C[C@@H]1F [Example 206] | 8060 | 17 |  | 
10 | NC1CCN(Cc2ccc3cncc(-c4cc5ccccc5o4)c3c2)c2ccccc21 (centres unmarked) [Example 207] | 8040 | 606 |  | 
11 | c1coc(-c2cncc3ccc(CNc4ccnc5ccccc45)cc23)c1 [Example 208] | 8170 | 56 |  | 
12 | Cc1ccc(-c2cncc3ccc(CNc4ccnc5ccccc45)cc23)o1 [Example 209] | 7500 | 56 |  | 
13 | CN(c1ccc2cncc(-c3cc4ccccc4o3)c2c1)C1CCC(N)CC1 (centres unmarked) [Example 210] | 1760 | 22 |  | 
14 | CN(c1ccc2cncc(-c3cc4ccccc4o3)c2c1)C1CCNCC1 [Example 211] | 5570 | 425 |  | 
15 | c1ccc2oc(-c3cncc4ccc(NC5CCCNC5)cc34)cc2c1 (centres unmarked) [Example 212] | 1700 | 418 |  | 
16 | c1ccc2oc(-c3cncc4ccc(NCC5CCNCC5)cc34)cc2c1 [Example 213] | 3480 | 113 |  | 
17 | c1ccc2oc(-c3cncc4ccc(NCC5CCCNC5)cc34)cc2c1 (centres unmarked) [Example 214] | 1420 | 534 |  | 
18 | Nc1ncc(-c2ccc(Cl)cc2)c2cc(CN3CCC(N)CC3)ccc12 [Example 215] | 3300 | 473 |  | 
19 | Nc1ncc(-c2cccc(Cl)c2)c2cc(CN3CCC(N)CC3)ccc12 [Example 216] | 2520 | 1110 |  | 
20 | Nc1ncc(-c2ccc(Cl)c(Cl)c2)c2cc(CN3CCC(N)CC3)ccc12 [Example 217] | 3060 | 3010 |  | 
21 | Nc1ncc(-c2cc(Cl)cc(Cl)c2)c2cc(CN3CCC(N)CC3)ccc12 [Example 218] | 2470 | 5720 |  | 
22 | Nc1ncc(-c2ccc(F)cc2)c2cc(CN3CCC(N)CC3)ccc12 [Example 219] | 5310 | 1020 |  | 
23 | Nc1ncc(-c2cccc(F)c2)c2cc(CN3CCC(N)CC3)ccc12 [Example 220] | 4280 | 1470 |  | 
24 | Nc1ncc(-c2ccc(F)c(F)c2)c2cc(CN3CCC(N)CC3)ccc12 [Example 221] | 5030 | 351 |  | 
25 | Nc1ncc(-c2cc(F)cc(F)c2)c2cc(CN3CCC(N)CC3)ccc12 [Example 222] | 3500 | 1910 |  | 

Row | Structure (SMILES) | IC50 [1] [nM] | IC50 (MNK1) [nM] | inhibition at 50 µM [1] [%] | inhibition at 10 µM (MNK1; at 10 μM, read-out: Inhibition of MNK1 activity at indicated concentration) [%]
26 | Nc1ncc(-c2cc3ccccc3o2)c2cc(CN3CCNCC3)ccc12 [Example 223] | 3940 | 1140 |  | 
27 | c1ccc2oc(-c3cncc4ccc(CN5CCNCC5)cc34)cc2c1 [Example 224, 4-(Benzofuran-2-yl)-6-(piperazin-1-ylmethyl)isoquinoline] | 11600 | 222 |  | 
28 | c1coc(-c2cncc3ccc(CN4CCNCC4)cc23)c1 [Example 225] |  | 96 | 65 | 
29 | Cc1ccc(-c2cncc3ccc(CN4CCNCC4)cc23)o1 [Example 226] | 20400 | 229 |  | 
30 | NC1CCN(Cc2ccc3cncc(-c4nc5ccccc5s4)c3c2)CC1 [Example 227, 1-[[4-(1,3-Benzothiazol-2-yl)-6-isoquinolyl]methyl]piperidin-4-amine] | 4430 | 1020 |  | 
31 | NC1CCN(Cc2ccc3cncc(-c4nc5ccccc5o4)c3c2)CC1 [Example 228] | 4980 | 483 |  | 
32 | N[C@H]1CC[C@H](Nc2ccc3cncc(-c4ccccc4)c3c2)CC1 [Example 229, trans-N4-(4-phenyl-6-isoquinolyl)cyclohexane-1,4-diamine] | 4500 | 225 |  | 
33 | N[C@H]1CC[C@H](CNc2ccc3cncc(-c4cc5ccccc5o4)c3c2)CC1 [Example 230, trans-N-[(4-Aminocyclohexyl)methyl]-4-(benzofuran-2-yl) isoquinolin-6-amine] | 6020 | 2190 |  | 
34 | N[C@H]1CC[C@@H](CNc2ccc3cncc(-c4cc5ccccc5o4)c3c2)CC1 [Example 231] | 3240 |  |  | 54
35 | Nc1ncc(-c2cc3ccccc3o2)c2cc(NCc3ccncc3)ccc12 [Example 233, 4-(Benzofuran-2-yl)-N6-(4-pyridylmethyl)isoquinoline-1,6-diamine] | 6800 | 4300 |  | 
36 | NC1CCN(Cc2cc(Cl)c3cncc(-c4cc5ccccc5o4)c3c2)CC1 [Example 236, 1-[[4-(Benzofuran-2-yl)-8-chloro-6-isoquinolyl]methyl]piperidin-4-amine] | 4400 | 579 |  | 
37 | NC1CCN(Cc2cc(Cl)c3cncc(-c4ccc(Cl)cc4)c3c2)CC1 [Example 237] | 7800 | 426 |  | 
38 | NC1CCN(Cc2cc(Cl)c3cncc(-c4ccc(F)c(F)c4)c3c2)CC1 [Example 238] | 9080 | 234 |  | 
39 | NC1CCN(Cc2cc(Cl)c3cncc(-c4ccco4)c3c2)CC1 [Example 239] | 3200 | 100 |  | 
40 | NC1CCN(Cc2cc(Cl)c3cncc(-c4cccs4)c3c2)CC1 [Example 240] | 5760 | 145 |  | 
41 | NC1CCN(Cc2cc(Cl)c3cncc(-c4ccccc4)c3c2)CC1 [Example 241] | 10400 | 213 |  | 
42 | COc1cc(CN2CCC(N)CC2)cc2c(-c3cc4ccccc4o3)cncc12 [Example 242, 1-[[4-(Benzofuran-2-yl)-8-methoxy-6-isoquinolyl]methyl]piperidin-4-amine] | 2740 | 164 |  | 
43 | COc1cc(CN2CCC(N)CC2)cc2c(-c3ccc(F)c(F)c3)cncc12 [Example 243] | 5730 | 347 |  | 
44 | COc1cc(CN2CCC(N)CC2)cc2c(-c3ccco3)cncc12 [Example 244] | 14200 | 116 |  | 
45 | COc1cc(CN2CCC(N)CC2)cc2c(-c3cccs3)cncc12 [Example 245] | 3330 | 24 |  | 
46 | COc1cc(CN2CCC(N)CC2)cc2c(-c3ccccc3)cncc12 [Example 246] | 5730 | 432 |  | 
47 | NC1CCN(Cc2cc(F)c3cncc(-c4cc5ccccc5o4)c3c2)CC1 [Example 247] | 8400 | 228 |  | 
48 | NC1CCN(Cc2cc3c(-c4cc5ccccc5o4)cncc3c(F)c2F)CC1 [Example 248] | 10000 | 147 |  | 
49 | NC1CCN(Cc2cc3c(-c4cc5ccccc5o4)cncc3cc2F)CC1 [Example 249] | 7860 | 44 |  | 
